In ChEMBL document CHEMBL1944620, “Discovery of non-oxime reactivators using an in silico pharmacophore model of oxime reactivators of OP-inhibited acetylcholinesterase” (Eur J Med Chem, 2012):

What follows are compounds tested on Anguilliformes (assay: Reactivation of DFP-inhibited eel AChE by spectrophotometry relative to 2-PAM).

`FC(F)(F)c1ccnc(NCCNC(=S)NCc2ccco2)n1` and `Cc1nc(-c2ccccn2)nc(N2CCN(CCO)CC2)c1Cl` cannot be ordered by Ratio: < 10 for the first, < 10 for the second.

`O=[N+]([O-])c1ccc(N2CCCN(C(=S)Nc3ccc(F)cc3Br)CC2)nc1` and `COc1cc(/C=N/NC(=O)c2cnc3ccccc3c2)cc(Br)c1OCc1ccccc1Cl` cannot be ordered by Ratio: < 10 for the first, < 10 for the second.

Each compound was assayed on Anguilliformes (assay: Reactivation of DFP-inhibited eel AChE assessed as reactivation efficacy by spectrophotometry).

First: FC(F)(F)c1ccnc(NCCNC(=S)NCc2ccco2)n1
Second: OC(CNCCNc1nccc(C(F)(F)F)n1)CSc1ccccc1 (centres undefined)
The Activity of the first is lower: 11 mmol⁻¹ min⁻¹ for the first, 91.1 mmol⁻¹ min⁻¹ for the second.

First: O=[N+]([O-])c1ccc(N2CCCN(C(=S)Nc3ccc(F)cc3Br)CC2)nc1
Second: Cc1cc(C)cc(NC(=O)N2CCCN(c3ncccc3[N+](=O)[O-])CC2)c1
The Activity of the first is lower: 10.7 mmol⁻¹ min⁻¹ for the first, 77.2 mmol⁻¹ min⁻¹ for the second.

Compared with `CCOC(=O)c1cc(-c2nc(C(=O)NN)cs2)c(C)nc1C(F)(F)F`, `CCOC(=O)c1cc(C#N)c(C)nc1N1CCN(S(=O)(=O)c2ccccc2)CC1` is lower in Activity: 156 mmol⁻¹ min⁻¹ for the first, 24.7 mmol⁻¹ min⁻¹ for the second.

First: OC(CNCCNc1nccc(C(F)(F)F)n1)COc1ccc(Cl)c(Cl)c1 (centres undefined)
Second: OC(CNCCNc1nccc(C(F)(F)F)n1)COc1ccccc1 (centres undefined)
The Activity of the first is higher: 75.2 mmol⁻¹ min⁻¹ for the first, 26.3 mmol⁻¹ min⁻¹ for the second.

Compared with `OC(CNCCNc1ccc(C(F)(F)F)cn1)CSc1ccc(F)cc1` (centres undefined), `OC(CNCCNc1nccc(C(F)(F)F)n1)CSc1ccc(F)cc1` (centres undefined) is lower in Activity: 71.6 mmol⁻¹ min⁻¹ for the first, 30.2 mmol⁻¹ min⁻¹ for the second.

Going from `O=C1CCC(=O)N1c1ccc(S(=O)(=O)N2CCN(c3nccc(C(F)(F)F)n3)CC2)cc1` to `O=C(Nc1ccc(Cl)cc1)N1CCCN(c2ccc(C(F)(F)F)cc2[N+](=O)[O-])CC1`, the Activity rises from 48.4 mmol⁻¹ min⁻¹ to 101 mmol⁻¹ min⁻¹.

Going from `Cc1ccc(S(=O)(=O)NC(=O)NCCCNC(=O)OC(C)(C)C)cc1` to `O=[N+]([O-])c1ccc(OCC(O)CNCCNc2nccc(C(F)(F)F)n2)cc1` (centres undefined), the Activity rises from 76 mmol⁻¹ min⁻¹ to 212 mmol⁻¹ min⁻¹.

Going from `OC1CCN(CC(O)COc2ccc(Cl)c(Cl)c2)CC1` (centres undefined) to `OC(COc1ccc(Cl)c(Cl)c1)CN1CCN(c2nc3ccc(Cl)cc3s2)CC1` (centres undefined), the Activity falls from 34.3 mmol⁻¹ min⁻¹ to 25.1 mmol⁻¹ min⁻¹.

Compared with `COc1cc(/C=N/NC(=O)c2cnc3ccccc3c2)cc(Br)c1OCc1ccccc1Cl`, `COc1cc(/C=N/NC(=O)c2ccc(N)cc2)cc(Br)c1OCc1ccccc1Cl` is higher in Activity: 13 mmol⁻¹ min⁻¹ for the first, 214 mmol⁻¹ min⁻¹ for the second.

First: S=C(NC1CCCCCCC1)N1CCCN(c2nc3ccc(Cl)cc3s2)CC1
Second: CC(C)(C)OC(=O)N1CCCN(C(=S)Nc2ccccc2N2CCOCC2)CC1
The Activity of the first is lower: 26.7 mmol⁻¹ min⁻¹ for the first, 65.9 mmol⁻¹ min⁻¹ for the second.

Going from `OC(CNCCNc1nccc(C(F)(F)F)n1)COc1cccc(C(F)(F)F)c1` (centres undefined) to `OC(CNCCNc1nccc(C(F)(F)F)n1)COc1ccc(OC(F)(F)F)cc1` (centres undefined), the Activity falls from 38 mmol⁻¹ min⁻¹ to 34.4 mmol⁻¹ min⁻¹.

First: COc1cc(C(=O)Oc2c(Br)cc(Br)cc2/C=N/NC(=O)C(O)(c2ccccc2)c2ccccc2)cc(OC)c1OC
Second: COc1cccc(C(=O)Oc2c(Br)cc(Br)cc2/C=N/NC(=O)CNC(=O)c2ccc(OC)c(OC)c2)c1
The Activity of the first is lower: 39.9 mmol⁻¹ min⁻¹ for the first, 56.2 mmol⁻¹ min⁻¹ for the second.

Going from `O=C(Nc1cc(F)cc(F)c1)N1CCCN(c2ncc(C(F)(F)F)cc2Cl)CC1` to `Cc1nc(-c2ccccn2)nc(N2CCN(CCO)CC2)c1Cl`, the Activity falls from 80.7 mmol⁻¹ min⁻¹ to 13.9 mmol⁻¹ min⁻¹.

First: FC(F)(F)c1ccnc(Oc2ccc(/C=N/NC(=S)Nc3cc(Cl)ccc3Cl)cc2)n1
Second: OC(CNCCNc1nccc(C(F)(F)F)n1)Cn1ccc2ccccc21 (centres undefined)
The Activity of the first is lower: 53.6 mmol⁻¹ min⁻¹ for the first, 57 mmol⁻¹ min⁻¹ for the second.

Going from `COc1ccc(CCNCC(O)Cn2ccc3ccccc32)cc1OC` (centres undefined) to `OC(CNCCNc1ccc(C(F)(F)F)cn1)COc1ccccc1` (centres undefined), the Activity falls from 79.6 mmol⁻¹ min⁻¹ to 20.6 mmol⁻¹ min⁻¹.

Going from `CC(CO)(CO)NCC(O)COc1ccc(OC(F)(F)F)cc1` (centres undefined) to `COc1ccc(/C=C(/NC(=O)c2ccccc2)C(=O)N/N=C\c2cc(Br)c(OCc3ccccc3Cl)c(OC)c2)cc1`, the Activity rises from 73 mmol⁻¹ min⁻¹ to 673 mmol⁻¹ min⁻¹.

Going from `COc1ccc(C2NCCc3c2[nH]c2ccc(OCc4ccccc4)cc32)cc1COc1c(Br)cc(Br)cc1Br` (centres undefined) to `COc1cc(/C=N/NC(=O)c2ccccc2NC(C)=O)cc(Br)c1OCc1ccccc1Cl`, the Activity falls from 102 mmol⁻¹ min⁻¹ to 33.1 mmol⁻¹ min⁻¹.

`C[n+]1ccccc1C=NO` was tested, and the Activity was 2.61 mmol⁻¹ min⁻¹.
